From ChEMBL document CHEMBL4414660, “Effect of Modifier Structure on the Activation of Leukotriene A4 Hydrolase Aminopeptidase Activity” (J Med Chem, 2019)

Legend:
[1] = biological target: T1, Leukotriene A-4 hydrolase (Homo sapiens, UniProt P09960); test: Activation of N-terminal (His)6 and Xpress-tagged LTA4H (unknown origin) expressed in Escherichia coli BL21(DE3) cells assessed as increase in aminopeptidase activity by measuring p-nitroanilide release using L-Alanine-p-nitroanilide incubated for 10 mins by UV plate reader based assay
T1 sequence (P09960 whole entry): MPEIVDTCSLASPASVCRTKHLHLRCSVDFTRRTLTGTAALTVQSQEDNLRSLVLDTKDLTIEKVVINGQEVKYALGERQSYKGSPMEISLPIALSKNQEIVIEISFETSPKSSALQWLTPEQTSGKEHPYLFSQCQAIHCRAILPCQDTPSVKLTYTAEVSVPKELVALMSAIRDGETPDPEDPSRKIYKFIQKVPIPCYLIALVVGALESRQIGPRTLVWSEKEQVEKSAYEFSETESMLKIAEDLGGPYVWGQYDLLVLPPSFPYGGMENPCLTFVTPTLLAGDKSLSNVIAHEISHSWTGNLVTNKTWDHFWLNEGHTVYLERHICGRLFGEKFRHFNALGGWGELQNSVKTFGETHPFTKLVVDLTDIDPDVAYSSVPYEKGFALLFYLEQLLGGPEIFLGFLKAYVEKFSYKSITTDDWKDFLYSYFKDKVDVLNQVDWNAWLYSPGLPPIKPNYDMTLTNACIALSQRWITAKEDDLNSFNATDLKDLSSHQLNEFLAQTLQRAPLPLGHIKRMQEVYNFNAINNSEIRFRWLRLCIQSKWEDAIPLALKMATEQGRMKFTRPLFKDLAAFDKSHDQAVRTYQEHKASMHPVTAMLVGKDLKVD

[2] = biological target: T2, Leukotriene A-4 hydrolase (Homo sapiens) (UniProt P09960); test: (§1) Activation of N-terminal (His)6 and Xpress-tagged LTA4H (unknown origin) expressed in Escherichia coli BL21(DE3) cells assessed as increase in aminopeptidase activity by measuring reciprocal allosteric coupling constant for hyperbolic mixed predominantly catalytic activation using L-Alanine-p-nitroanilide incubated for 10 mins by p-nitroanilide release detection based UV plate reader based assay
T2 sequence (whole entry): T1 sequence (P09960 whole entry)

[3] = biological target: T2, Leukotriene A-4 hydrolase (Homo sapiens); test: as §1, with “factor by which activator affects catalytic” for “reciprocal allosteric coupling”
[4] = biological target: T2, Leukotriene A-4 hydrolase (Homo sapiens); test: as §1, with “dissociation” for “reciprocal allosteric coupling”, “constant (KX)” for “constant”

`Cc1ccccc1Cc1ccc(-c2csc(N)n2)cc1` was tested, and the AC50 [1] was 6.62 µM.

Compound `Cc1ccc(Cc2ccc(-c3csc(N)n3)cc2)cc1` has an AC50 [1] of 0.083 µM, a K [2] of 1.64 and a fold change (FC) [3] of 18.7. The K [4] was 0.1 µM.
